Measured values: PubChem BioAssay AID328 (DTP/NCI, 2004)
Where “and” joins values, the source holds several entries; their conditions need not be identical. Identical values can stand only once. Inconclusive results and toxic doses are left out. How the source made its calls: active means survival T/C of 150% or more; inactive means T/C below 125% in these data.

System: BDF1 mice, P388 leukemia ip, median survival T/C
Assay: NCI In Vivo Anticancer Drug Screen. Data for tumor model P388 Leukemia (intraperitoneal) in B6D2F1 (BDF1) mice
Conditions: endpoint: median survival time, higher = longer survival
In short: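 In tumour-bearing mice, survival after compound treatment is set against the vehicle group and given as a quotient.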

[1] = dose: 50.0 mg/kg/injection, schedule: Q04DX003 (ip), vehicle: saline with Tween-80
[2] = dose: 100.0 mg/kg/injection, schedule: Q04DX003 (ip), vehicle: saline with Tween-80
[3] = dose: 200.0 mg/kg/injection, schedule: Q04DX003 (ip), vehicle: saline with Tween-80
[4] = dose: 400.0 mg/kg/injection, schedule: Q04DX003 (ip), vehicle: saline with Tween-80
[5] = dose: 50.0 mg/kg/injection, schedule: Q01DX009 (ip), vehicle: saline

Measured: T/C

COc1cc2c(c(OC)c1OC)-c1cc3c(cc1C(=O)[C@@H]1COC(=O)[C@@H]21)OCO3
inactive: dose: 1.3 mg/kg/injection, schedule: Q01DX009 (ip), vehicle: saline 109 % of control | dose: 2.0 mg/kg/injection, schedule: Q01DX009 (ip), vehicle: saline 95 % of control | dose: 3.0 mg/kg/injection, schedule: Q01DX009 (ip), vehicle: saline 95 % of control | dose: 5.3 mg/kg/injection, schedule: Q01DX009 (ip), vehicle: saline with Tween-80 100 % of control | dose: 8.0 mg/kg/injection, schedule: Q01DX009 (ip), vehicle: saline with Tween-80 100 % of control | dose: 12.0 mg/kg/injection, schedule: Q01DX009 (ip), vehicle: saline with Tween-80 95 % of control | dose: 21.4 mg/kg/injection, schedule: Q01DX009 (ip), vehicle: saline 105 % of control | dose: 32.0 mg/kg/injection, schedule: Q01DX009 (ip), vehicle: saline 110 % of control | dose: 48.0 mg/kg/injection, schedule: Q01DX009 (ip), vehicle: saline 110 % of control

OC(CCl)COCC#Cc1ccccc1 (configuration not stated)
inactive: dose: 25.0 mg/kg/injection, schedule: Q04DX003 (ip), vehicle: saline with Tween-80 105 % of control | [1] 100 % of control | dose: 100.0 mg/kg/injection, schedule: Q01DX009 (ip), vehicle: saline with Tween-80 95 % of control | [2] 115 % of control | dose: 200.0 mg/kg/injection, schedule: Q01DX009 (ip), vehicle: saline with Tween-80 112 % of control | [3] 95 % of control | dose: 400.0 mg/kg/injection, schedule: Q01DX009 (ip), vehicle: saline with Tween-80 116 % of control | [4] 95 % of control

Cc1c(Cl)cccc1NC(=O)c1ccccc1C(=O)O
inactive: dose: 100.0 mg/kg/injection, schedule: Q04DX003 (ip), vehicle: Klucel (hydroxypropylcellulose) (HPC) 91 % of control | dose: 200.0 mg/kg/injection, schedule: Q04DX003 (ip), vehicle: Klucel (hydroxypropylcellulose) (HPC) 95 % of control | dose: 400.0 mg/kg/injection, schedule: Q04DX003 (ip), vehicle: Klucel (hydroxypropylcellulose) (HPC) 100 % of control

CSc1nc(SC)c2[nH]cnc2n1
inactive: dose: 3.13 mg/kg/injection, schedule: Q01DX009 (ip), vehicle: saline with Tween-80 87 % of control | dose: 6.25 mg/kg/injection, schedule: Q01DX009 (ip), vehicle: saline with Tween-80 99 % of control | dose: 12.5 mg/kg/injection, schedule: Q01DX009 (ip), vehicle: saline with Tween-80 91 % of control | dose: 25.0 mg/kg/injection, schedule: Q01DX009 (ip), vehicle: saline with Tween-80 94 % of control

COC(=O)CCCc1c[nH]c2ccccc12
inactive: dose: 100.0 mg/kg/injection, schedule: Q01DX009 (ip), vehicle: other 103 % of control | dose: 200.0 mg/kg/injection, schedule: Q01DX009 (ip), vehicle: other 94 % of control | dose: 400.0 mg/kg/injection, schedule: Q01DX009 (ip), vehicle: other 86 % of control

NC(CC1=CCC=CC1)C(=O)O (configuration not stated)
inactive: [5] 96 % of control and 113 % of control | dose: 100.0 mg/kg/injection, schedule: Q01DX009 (ip), vehicle: saline 117 % of control

COC1C(CO)OC(n2cnc3c(=S)nc(N)[nH]c32)C1O (configuration not stated)
inactive: [2] 104 % of control | [3] 104 % of control | dose: 600.0 mg/kg/injection, schedule: Q04DX003 (ip), vehicle: saline with Tween-80 122 % of control

N#Cc1cnn(C(N)=S)c1N
inactive: dose: 25.0 mg/kg/injection, schedule: Q04DX003 (ip), vehicle: saline 104 % of control | dose: 50.0 mg/kg/injection, schedule: Q04DX003 (ip), vehicle: saline 104 % of control | dose: 100.0 mg/kg/injection, schedule: Q04DX003 (ip), vehicle: saline 100 % of control

CCCCc1ccc(C(=O)O)nc1
inactive: dose: 12.5 mg/kg/injection, schedule: Q01DX009 (ip), vehicle: saline 100 % of control | dose: 25.0 mg/kg/injection, schedule: Q01DX009 (ip), vehicle: saline 102 % of control | [5] 102 % of control

c1ccc2c(c1)C1CCC2c2ccccc21
inactive: [1] 100 % of control | [2] 100 % of control | [3] 88 % of control and 100 % of control | [4] 100 % of control
